Assay results reported in patent US20120252773A1, “Method and composition for inhibiting cell proliferation and angiogenesis” (priority 2005, published 2012).

Key:
Stat-3 (pStat-3, Tyr705) = test: Stat-3 phosphorylation, Western blot, DU-145 cells; type: cell-based, human; conditions: DU-145, 0.5 μM, 48 h
Protocol: Stat-3 is, therefore, an important molecular target for developing anti-cancer agents. DU-145 cells were treated with 0 (control), 100, or 500 nM of (2) for 48 hours. Western blot analysis was performed using total and phospho-Stat-3 (pStat-3, Tyr705) antibodies from Cell Signal Technology, Inc.

[1] = tested on: PC-3 human prostate tumors; test: PC-3 xenograft nude mouse model, tumor growth; type: in vivo
Protocol: Compound (2) was evaluated using the xenograft nude Balb-C athymic mouse model for its in vivo anti-tumor activity against PC-3 human prostate tumors. The mice were obtained from Taconic Laboratories. The experiment was conducted by subcutaneously implanting PC-3 cells to the right flanks of BALB-C athymic nude mice (Taconic Laboratories) followed by observing tumor growth daily. There were 8 mice in the control and each treatment groups. When tumor volumes reached 70-100 mm^3, drug delivery was initiated at 3 dose levels of (2). The compound was delivered orally as follows: 0 mg/kg to the control group, 10 mg/kg to one treatment group, and 30 mg/kg to a second treatment group, each once daily for 28 days; and 100 mg/kg to a third treatment group, once weekly. Tumor volumes were measured twice weekly and body weights once weekly.
Mice were treated as in Example 7, except that one group received no oral (2), but instead received 7.5 mg/kg i.p. paclitaxel (Sigma) when the tumors reached 70-100 mm^3, while another group received both (2) orally at 10 mg/kg and paclitaxel i.p. at 7.5 mg/kg.

[2] = tested on: A549 human non-small cell lung cancer cells; test: Cell growth inhibition, MTT, 7 days, A549; type: cell-based; conditions: A549, 7 days, Example 15
Protocol: (§1) To measure the inhibitory activity of (2) on growth of HDMVEC cells (Clonetics, San Diego, Calif.), 2,000 cells were seeded in each well of a 96-well plate in […] of EGM medium (Clonetics) supplemented with 5% fetal bovine serum (Sigma). The plate was incubated at 37° C. in a tissue culture incubator for 24 h, and then various concentrations of (2) dissolved in EGM were added to each well in 5-10 μl aliquots. Four wells were used for each concentration. Medium in each well was renewed with fresh test solution added every other day. After 7 days of culture, the viable cells were measured using reagents from an MTT kit (Promega Corporation, Madison, Wis.), using instructions provided by the supplier. The number of viable cells in treated wells relative to those in control wells gave the percentage of inhibition.
Compound (2) was evaluated in several different human cancer cell lines for its effects on cell growth. […]
To measure the inhibitory activity of test articles on growth of NSCLC cells, 2,000 cells were seeded in each well of a 96-well plate in […] of RPMI-1640 medium supplemented with 2 mM glutamine and 10% fetal bovine serum (growth medium). […] After 7 days of culture, the viable cells were measured using reagents from MTT kit (Promega Corporation, Madison, Wis.), using instructions provided by the supplier. […]

[3] = tested on: mouse transformed fibroblast cell line (L929); test: Cell growth inhibition, MTT, 7 days, L929; type: cell-based; conditions: L929, 7 days, compared with human cancer cell lines
Protocol: as §1
Compound (2) was evaluated in several different human cancer cell lines for its effects on cell growth. The human cancer cell lines used (ATCC) were A549 lung cancer cells, U-87 brain cancer cells, SKOV-3 ovarian cancer cells, PC-3 non-androgen dependent prostate cancer cells, and MDA MB-231 estrogen-independent breast cancer cells. Human umbilical vein endothelial cells (HUVEC) and a mouse transformed fibroblast cell line (L929) were also included in the assay for comparison. […]

C[C@@H]1Cc2cc(O)ccc2C2CCC3(C)/C(=C/COCCN(C)C)CCC3C21 (stereo partly drawn) [Compound (2), (E)-3-Hydroxy-7α-methyl-21-[(2-dimethylamino)ethoxy]-19-norpregna-1,3,5(10),17(20)-tetraene]
reduction of tyrosine phosphorylation of Stat-3 (Stat-3 (pStat-3, Tyr705)): 52% | tumor growth rate ([1]; 10 mg/kg oral once daily for 28 days): markedly decreased growth rates | reduction of microvascularization compared to control group ([1]; 30 mg/kg oral): about 50% | tumor growth rate ([1]; 30 mg/kg oral once daily for 28 days): markedly decreased growth rates | tumor growth rate ([1]; 100 mg/kg oral once weekly): markedly decreased growth rates | growth of NSCLC cells [2]: inhibited the growth of NSCLC cells in a dose-response manner | inhibitory activity compared with Cisplatin tested in parallel [2]: much more potent than that of Cisplatin | effect on growth of L929 mouse fibroblast cells [3]: much less
